Measured values reported in publication PMC11062899, “De novo development of small cyclic peptides that are orally bioavailable” (Nature Chemical Biology, 2023).
“And” between values parts separate entries of the source, which are not always exact repeats. Equal values may be shown once.

Assay: Metabolic stability in rat liver microsomes (RLMs)
Settings: for TIC value of compound, 0 min, R1 / TIC value of compound, 0 min, R3 / TIC value of compound, 5 min, R1 / TIC value of compound, 5 min, R3 / TIC value of compound, 15 min, R1 / TIC value of compound, 15 min, R3 / TIC value of compound, 30 min, R1 / TIC value of compound, 30 min, R3 / TIC value of compound, 60 min, R1 / TIC value of compound, 60 min, R3: rat liver microsomes; for microsomal CLint / half-life: rat; for TIC value of compound, metabolic stability RLM: replicates R1-R3
[1] = CL (ul/min/mg protein), R1, RLM CL, replicate R1, unrounded
[2] = CL (ul/min/mg protein), R2, RLM CL, replicate R2, unrounded
[3] = CL (ul/min/mg protein), R3, RLM CL, replicate R3, unrounded
[4] = Half Life (min), R1, RLM metabolic stability, replicate R1
[5] = Half Life (min), R2, RLM metabolic stability, replicate R2
[6] = Half Life (min), R3, RLM metabolic stability, replicate R3
[7] = microsomes, Metabolic stability: Half life T1/2 (min), RLMs, mean and SD, three measurements
[8] = microsomes, Metabolic stability: RLM CL (ul/min/mg), RLMs, mean and SD, three measurements
[9] = microsomes, RLM CL, Average, average of R1-R3
[10] = microsomes, RLM CL, R1, RLM CL, replicate R1, summary block
[11] = microsomes, RLM CL, R2, RLM CL, replicate R2, summary block
[12] = microsomes, RLM CL, R3, RLM CL, replicate R3, summary block
[13] = microsomes, CL (ul/min/mg protein), R1, RLM CL, replicate R1, unrounded
[14] = microsomes, CL (ul/min/mg protein), R2, RLM CL, replicate R2, unrounded
[15] = microsomes, CL (ul/min/mg protein), R3, RLM CL, replicate R3, unrounded
[16] = microsomes, Half Life (min), R1, RLM metabolic stability, replicate R1
[17] = microsomes, Half Life (min), R2, RLM metabolic stability, replicate R2
[18] = microsomes, Half Life (min), R3, RLM metabolic stability, replicate R3

Row | Compound | TIC value of compound, 0 min, R1 (0 min, replicate R1) | TIC value of compound, 0 min, R3 (0 min, replicate R3) | TIC value of compound, 5 min, R1 (5 min, replicate R1) | TIC value of compound, 5 min, R3 (5 min, replicate R3) | TIC value of compound, 15 min, R1 (15 min, replicate R1) | TIC value of compound, 15 min, R3 (15 min, replicate R3) | TIC value of compound, 30 min, R1 (30 min, replicate R1) | TIC value of compound, 30 min, R3 (30 min, replicate R3) | TIC value of compound, 60 min, R1 (60 min, replicate R1) | TIC value of compound, 60 min, R3 (60 min, replicate R3) | microsomal CLint [1] [µL/min/mg] | microsomal CLint [2] [µL/min/mg] | microsomal CLint [3] [µL/min/mg] | half-life [4] [min] | half-life [7] [min] | microsomal CLint [8] [µL/min/mg] | microsomal CLint [9] [µL/min/mg] | microsomal CLint [10] [µL/min/mg] | microsomal CLint [11] [µL/min/mg] | microsomal CLint [12] [µL/min/mg] | further results
1 | O=C1C[C@H]2CCCN2C(=O)[C@H](Cc2ccccc2)NC(=O)[C@@H](NC(=O)c2ccc(Cl)s2)CCSCc2cccc(n2)CSCCN1 [compound 33] | 21264470 | 18840495 | 18437497 | 18024716 | 13918481 | 11416589 | 9967302 | 7497114 | 4659151 | 3520876 | 52.1 | 71 | 58.8 | 26.6 | 23 ± 3 | 61 ± 8 | 60.6 | 52.1 | 71 | 58.8 | half-life [5]: 19.5 min; half-life [6]: 23.6 min
2 | O=C1C[C@H]2CCCN2C(=O)[C@H](Cc2ccccc2)NC(=O)[C@@H](NC(=O)c2ccc(Cl)s2)CCCSC/C=C/CSCCN1 [compound 36] | 9960125 | 9584351 | 8960155 | 9591941 | 6029519 | 6211335 | 3459884 | 2699618 | 607530 | 705245 | – | – | – | – | 21 ± 1 | 67 ± 4 | 67.3 | 70.7 | 61.9 | 69.3 | microsomal CLint [13]: 70.7 µL/min/mg; microsomal CLint [14]: 61.9 µL/min/mg; microsomal CLint [15]: 69.3 µL/min/mg; half-life [16]: 19.6 min; half-life [17]: 22.4 min; half-life [18]: 20 min
3 | O=C1CSCCC[C@H](NC(=O)c2ccc(Cl)s2)C(=O)N[C@@H](Cc2ccccc2)C(=O)N2CCC[C@@H]2CC(=O)NCCSC1 [compound 37] | 9508843 | 9444065 | 8851267 | 7487448 | 4635928 | 4037534 | 2932536 | 1896940 | 631769 | 473870 | – | – | – | – | 14.7 ± 1.7 | 95 ± 11 | 95.4 | 81.1 | 98 | 107 | microsomal CLint [13]: 81.1 µL/min/mg; microsomal CLint [14]: 98 µL/min/mg; microsomal CLint [15]: 107 µL/min/mg; half-life [16]: 17.1 min; half-life [17]: 14.2 min; half-life [18]: 12.9 min
4 | O=C1C[C@H]2CCCN2C(=O)[C@H](Cc2ccccc2)NC(=O)[C@@H](NC(=O)c2ccc(Cl)s2)CSC/C=C/CSCCN1 [peptide 32] | 4102350 | 4260631 | 2223511 | 2686035 | 283425 | 435364 | 0 | 35161 | 0 | 0 | 278 | 276 | 234 | 4.98 | 5.3 ± 0.4 | – | 263 | 278 | 276 | 234 | TIC value of compound, metabolic stability RLM (0 min): 4102350 (2×) and 4260631; TIC value of compound, metabolic stability RLM (5 min): 2223511 and 2018425 and 2686035; TIC value of compound, metabolic stability RLM (15 min): 283425 and 185564 and 435364; TIC value of compound, metabolic stability RLM (30 min): 0 (2×) and 35161; TIC value of compound, metabolic stability RLM (60 min): 0; half-life (Half Life (min) in RLMs (single replicates R1–R3), Fig. 5e source data): 4.98 min; half-life [5]: 5.02 min; half-life [6]: 5.93 min; microsomal CLint (microsomes, Clearance (CL) in RLMs, calculated from half-life, mean and s.d. of three measurements): 260 ± 20 µL/min/mg; half-life (microsomes, Half Life, RLM, individual replicates R1-R3): 4.98 min

Second part, led by results:

Row | TIC value of compound, 0 min, R1 (0 min, replicate R1) | TIC value of compound, 0 min, R3 (0 min, replicate R3) | TIC value of compound, 5 min, R1 (5 min, replicate R1) | TIC value of compound, 5 min, R3 (5 min, replicate R3) | TIC value of compound, 15 min, R1 (15 min, replicate R1) | TIC value of compound, 15 min, R3 (15 min, replicate R3) | TIC value of compound, 30 min, R1 (30 min, replicate R1) | TIC value of compound, 30 min, R3 (30 min, replicate R3) | TIC value of compound, 60 min, R1 (60 min, replicate R1) | TIC value of compound, 60 min, R3 (60 min, replicate R3) | microsomal CLint [1] [µL/min/mg] | microsomal CLint [2] [µL/min/mg] | microsomal CLint [3] [µL/min/mg] | half-life [4] [min] | half-life [7] [min] | microsomal CLint [8] [µL/min/mg] | microsomal CLint [9] [µL/min/mg] | microsomal CLint [10] [µL/min/mg] | microsomal CLint [11] [µL/min/mg] | microsomal CLint [12] [µL/min/mg] | Compound | further results
5 | 21675652 | 21375886 | 16129690 | 21185792 | 14173175 | 14991116 | 10634659 | 9842710 | 4587256 | 4284596 | 53.6 | 48.6 | 49.4 | 25.9 | 27 ± 1 | 51 ± 2 | 50.6 | 53.6 | 48.6 | 49.4 | O=C1C[C@H]2CCCN2C(=O)[C@H](Cc2ccccc2)NC(=O)[C@@H](NC(=O)c2ccc(Cl)s2)CSCc2cccc(n2)CSCCN1 [compound 31] | half-life [5]: 28.5 min; half-life [6]: 28 min
6 | 12429096 | 11063826 | 11351623 | 10806046 | 7245055 | 6630237 | 4320756 | 3830533 | 1228797 | 1213522 | 69.7 | 85.6 | 66.4 | 19.9 | 19 ± 2 | 74 ± 8 | 73.9 | 69.7 | 85.6 | 66.4 | O=C1C[C@H]2CCCN2C(=O)[C@H](Cc2ccccc2)NC(=O)[C@@H](NC(=O)c2ccc(Cl)s2)CCSC/C=C/CSCCN1 [compound 34] | half-life [5]: 16.2 min; half-life [6]: 20.9 min
7 | 23625921 | 25801224 | 20860918 | 23019710 | 12779197 | 13375542 | 7192264 | 5638202 | 1618321 | 1784495 | 79 | 90.4 | 88.3 | 17.6 | 16.2 ± 1 | 86 ± 5 | 85.9 | 79 | 90.3 | 88.3 | O=C1C[C@H]2CCCN2C(=O)[C@H](Cc2ccccc2)NC(=O)[C@@H](NC(=O)c2ccc(Cl)s2)CCCSCc2cccc(n2)CSCCN1 [compound 35] | half-life [5]: 15.3 min; half-life [6]: 15.7 min
